Results published in US20260207616A1, “COMBINATION THERAPIES FOR TREATMENT OF HEARING DISORDERS” (GATEWAY BIOTECHNOLOGY, INC., priority 2023, published 2026).

Test system: tinnitus positive mice
Experiment: go/no-go trials, sound-based avoidance detection (SBAD) in noise-induced tinnitus mice
Assay type: in vivo
Settings: intraperitoneal injection; for dosage reached before the agent alone was effective in treating the animals tinnitus: single agent
Protocol: With reference to FIGS. 1A-1D, single drug treatment of tinnitus is evaluated using the go/no-go methodology further elaborated upon in Example 4. With reference to FIGS. 2A-2B, multi drug treatment of tinnitus is evaluated using the go/no-go methodology further elaborated upon in Example 4. […] Using a shuttle box divided into two compartments, mice were trained to cross from side to side with sound cues in the “Go” trials and remain still in the absence of sound in the “No-Go” trials for 15 days. […] The sound cues were randomly played as white noise or narrow-band noise at 8,10,12.5,16, and 29 kHz with sound intensities randomly at 75, 80, or 85 dB. […] Additionally, a hurdle was added on training 11 to reinforce the training. After the 15th training day, mice were tested for 3 days to obtain a baseline score to be compared after noise exposure, as well as retraining for 3 days. Following the successful completion of training so that mice reached a high percentage of success in the trials, the mice were exposed to a noise-induced trauma for tinnitus over a two day period. To ensure that the mice still have their hearing, one ear was protected with an ear plug, while the other ear was exposed to the noise. The mice were placed in a sound booth where they were exposed to 120 dB broadband noise at 4-25 kHz for two hours. Following the noise exposure, the mice were housed for one month, and then tested to see if they have developed tinnitus. In these testing periods, the mice were tested for three days in the shuttle boxes, where they underwent the Go and No-Go trials, however in the No-Go trials the mice were not shocked, as it is expected that mice with tinnitus would cross compartments in the absence of a sound cue. The mice were continued to be shocked in the Go trials in order to ensure that they have retained their hearing and can hear the sound cues. […] To insure there is a significant difference in the No-Go trial scores, chi-square tests were completed comparing the post-noise exposure tests to the baseline tests. However, if tinnitus is not present in the mice, tests were done after waiting one more month, and another if needed. […] The Go and No-Go scores for the tests were compared using chi-square tests in Social Science Statistics and JASP. The chi-square tests were used first to determine whether mice were tinnitus positive by comparing the No-Go baseline scores pre-noise exposure to the No-Go post-noise exposure scores, with a significant difference (p-value<0.05) in at least 2 of the tests indicating a tinnitus positive mouse. Following this conclusion, the mice were tested accordingly to determine if their No-Go scores could be improved by different drug doses and combinations. […] The No-Go scores at 3 months post-noise exposure were compared to baselines to assess for tinnitus. Mice had significant decreases on all 3 days of testing. This indicates these mice had tinnitus. One or more mice is a control animal. In looking at the Go scores for the tinnitus animals when tested with the specified drugs, mice had significant decreases in their scores when. […] In contrast, a lack of change in the No-Go scores indicates the first and/or second agent was not effective in treating the animal's tinnitus, and decrease in the score may indicate that the animal's tinnitus was worsened.

Compound: COc1ccc2cc1Oc1ccc(cc1)C[C@H]1c3cc(c(OC)cc3CCN1C)Oc1c(OC)c(OC)cc3c1[C@H](C2)N(C)CC3 [TET, tetrandrine]
- correct percentage result in the no-go trial (TET 60 mg/kg): ~90%
- correct percentage result in the no-go trial (TET 90 mg/kg): ~95%
- dosage reached before the agent alone was effective in treating the animals tinnitus: about 30 mg/kg

Compound: CCC1(C)CC(=O)NC1=O (centres unmarked) [ESM, ethosuximide]
- correct percentage result in the no-go trial (ESM 300 mg/kg): ~70%

Compound: COCCOC(=O)C1=C(C)NC(C)=C(C(=O)OC(C)C)C1c1cccc([N+](=O)[O-])c1 (centres unmarked) [NMDP, nimodipine]
- correct percentage result in the no-go trial (NMDP 30 mg/kg): ~95%
- correct percentage result in the no-go trial (NMDP 50 mg/kg): ~95%
- dosage reached before the agent alone was effective in treating the animals tinnitus: about 30 mg/kg

Compound: CCOC(=O)C1=C(COCCN)NC(C)=C(C(=O)OC)C1c1ccccc1Cl (centres unmarked) [AML, amlodipine]
- correct percentage result in the no-go trial (AML 5 mg/kg): ~90%
- correct percentage result in the no-go trial (AML 8 mg/kg): ~95%

Compound: NC(=O)N1c2ccccc2C=Cc2ccccc21 [CBZ, carbamazepine]
- correct percentage result in the no-go trial (CBZ 5 mg/kg, within a margin of error of the saline dosed mice): less than 70%
- correct percentage result in the no-go trial (CBZ 8 mg/kg): less than 80%
